Source: patent US11473088B2, “Method of treating cancer and method of sensitizing cancer cells to the action of chemotherapeutic agents via growth hormone receptor antagonists or knock down” (Ohio University, priority 2016, dated 2022)

Columns and labels:
Assay in all cases: Phosphorylation of intracellular signaling intermediates by WB
Type in all cases: cell-based, human
MALME-3M cells = tested on: MALME-3M cells
Description: (§1) Briefly, cell lysates were separated by SDS-PAGE and transferred to nitrocellulose membrane by a wet-transfer method at 70 mA over 14 hours at 4° C. and blocked with 5% non-fat dry milk (NFDM) or 5% bovine serum albumin (BSA) in 1× TBS-T (Tris buffered saline, […] with 0.1% Triton-X100) for 12-16 hours at 4° C. with gentle rocking. Membranes were then incubated with primary antibody (at the specific dilutions cited below) for 12-16 hours at 4° C. with gentle rocking. Membranes were then washed for 5 min. 3 times with 1× TBS-T and incubated with corresponding secondary antibodies (at the specific dilutions cited below) for 2 hours at 25° C. Membranes were then washed for 5 min. 4 times with 1× TBS-T, treated with West Femto Chemiluminiscence detection reagents (Thermo Fisher Scientific), and the chemiluminiscence signal was captured using a GelDoc (Biorad) fluorescence reader. Densitometric analysis of the blots was performed by measured band-intensity from the area-under-curve using ImageJ software.
(§2) GH-GHR action regulates phosphorylation states of intracellular signaling intermediates in human melanoma cells: In order to assess the effects of GHR-KD on the activation states of GH regulated shared oncogenic signaling pathways, scr-siRNA or GHR-siRNA transfected human melanoma cells, at 60 hours post-transfection, were treated with 50 ng/ml hGH for 20 minutes, and phosphorylation levels of intracellular signaling intermediates were analyzed by WB. Results are described below, and shown in FIGS. 9A-9I, 10A-10L, and 11A-11I. For the results described and shown in FIGS. 9A-I, SK-MEL-28 cells, 24 hr post-transfection with either scramble (scr)-siRNA or GHR-siRNA were treated for ten mins with GH and lysed as described. WB was performed using appropriate antibodies. Densitometry analyses of individual blots was performed using Image) software and the ratio of phosphorylated vs. total protein levels against untreated scr-siRNA transfected controls. Overall, excess GH increased while GHR-KD decreased phosphorylation states. […] In all cases, […]] Blots from individual experiments were quantified and the mean of three blots per antibody was taken. Protein levels were normalized against expression of β-actin. [*, p<0.05, Students t test, n=3]. And, for the results described and shown in FIGS. 11A-11I, WB was performed using appropriate antibodies. Densitometry analyses of individual blots was performed using ImageJ software and the ratio of phosphorylated vs. total protein levels against untreated scr-siRNA transfected controls. Overall, excess GH increased while GHR-KD decreased phosphorylation states. Blots from individual experiments were quantified and the mean of three blots per antibody was taken. Protein levels were normalized against expression of β-actin. [*, p<0.05, Students t test, n=3]

SK-MEL-28 cells = tested on: SK-MEL-28 cells
Description: as §1, §2

SK-MEL-5 cells = tested on: SK-MEL-5 cells
Description: as §1, §2

hGH: Recombinant human growth hormone, Antibodies Online #ABIN2017921
increase in GH-induced phosphorylation of SRC (MALME-3M cells): 1.7 fold
STAT5 phosphorylation increased (MALME-3M cells; 50 ng/ml hGH): 5.8 fold
increase in STAT1 phosphorylation level (MALME-3M cells; 50 ng/ml hGH): 2.2 fold
increase in STAT3 phosphorylation level (MALME-3M cells; 50 ng/ml hGH): 11.9 fold
increase in GH-induced phosphorylation of JAK2 (SK-MEL-28 cells): 6.1 fold
increase in GH-induced phosphorylation of SRC (SK-MEL-28 cells): 3.5 fold
STAT5 phosphorylation increased (SK-MEL-28 cells; 50 ng/ml hGH): 4.1 fold
increase in STAT1 phosphorylation level (SK-MEL-28 cells; 50 ng/ml hGH): 2.4 fold
increase in STAT3 phosphorylation level (SK-MEL-28 cells; 50 ng/ml hGH): 1.9 fold
ERK1/2 levels upregulated by GH (increase) (SK-MEL-5 cells): 5 fold
increase in GH-induced phosphorylation of JAK2 (SK-MEL-5 cells): 1.7 fold
increase of AKT phosphorylation level (SK-MEL-5 cells; 50 ng/ml hGH): up to 4 fold
increase of mTOR phosphorylation level (SK-MEL-5 cells; 50 ng/ml hGH): ≤ 15 fold
